Data reported in US10512600B2, “RNA complexes that inhibit melanin production” (OliX Pharmaceuticals, Inc., priority 2015, dated 2019).
Where two headings read alike, the source gives them in different places. Oligonucleotides are written 5' to 3', each unit as a sugar letter and its base; * is a phosphorothioate linkage, no mark a phosphodiester; rarer units and linkages stand in square brackets, end groups in braces. Plain capitals give the bases only. {Chol} = cholesterol conjugate; m = 2'-O-methyl; r = 2'-OH (RNA)

Key:
[1] = system: HaCaT cells; experiment: Cytotoxicity (LDH, CytoTox96) and cell viability (CCK-8) in HaCaT cells; settings: 24 hours, LDH and CCK-8 assays, FIG. 6
Experimental: (§5) One day before treatment with cp-asiRNA(4)-1, 5.0×10^3MNT-1 cells or 1.0×10^4 HaCaT cells were seeded into 96 well plates. Immediately before treatment, the cells were washed with 1×DPBS buffer (Gibco), and then cultured in the presence of 1 μM or 3 μM of cp-asiRNATYR(4)-1 in OPTI-MEM buffer for 24 hours, at which point the cytotoxicity level was measured using a CytoTox96 Non-Radio Cytotoxicity assay (Promega) according to manufacturer's instructions. The media was then replaced with the serum-containing media and cell viability was measured using a cell counting kit-8 (Enzo) according to manufacturer's instructions.

[2] = system: MNT-1 cells; experiment: Melanin content assay in treated MNT-1 cells; format: cell-based, human; settings: 1 μM, 72 hours
Experimental: (§1) MNT-1 cells were cultured in Minimum Essential Media (Welgene) containing 20% fetal bovine serum (Gibco), 100 μg/ml penicillin/streptomycin, 10% 200 mM HEPES (Welgene) and 10% Dulbecco's modified Eagle's medium (Welgene). One day prior to treatment, 6.5×10^4MNT-1 cells were seeded in 12-well plates.
(§2) MNT-1 cells treated with cp-asiTYR(4)-1 as described above were tested for melanin content. After 72 hours of incubation in the presence of cp-asiTYR, the MNT-1 cells were collected, lysed with RIPA buffer (GE) and centrifuged at 13000 rpm. The resulting melanin pellet was dissolved in 100 μL of 1N NaOH (containing 10% DMSO) at 85° C. for 15 minutes and light absorption and melanin production were measured.
as §2, with “cp-asiTYR(4) 21AS-1 or cp-asiTYR(4) 19AS-5” for “cp-asiTYR(4)-1”
MNT-1 cells were cultured in Minimum Essential Media (Welgene) containing 20% fetal bovine serum (Gibco), 100 μg/ml penicillin/streptomycin, 10% 200 mM HEPES (Welgene) and 10% Dulbecco's modified Eagle's medium (Welgene). One day prior to treatment, 6.5×10^4MNT-1 cells were seeded in 12-well plates. Four hours prior to treatment, the cell media was replaced with 900 μL of FBS-containing media. The PF6-complexed asiRNA or lasiRNA was added to the cells and the cells were incubated for 24 hours, at which point the media was replaced. Tyrosinase mRNA levels were measured using real-time RT-PCR 24 hours after media replacement.
To test the treated MNT-1 cells for tyrosinase protein expression and melanin production, western blot and melanin content assays were performed as described above 48 hours after media replacement.

[3] = system: tyrosinase protein; experiment: Western blot of tyrosinase protein expression in treated MNT-1 cells; format: cell-based, human
Experimental: as §1
(§3) After 72 hours of cp-asiTYR(4)-1 incubation, the level of tyrosinase protein expression was determined via western blot. Briefly, the treated MNT-1 cells were lysed with RIPA buffer (GE). Fifteen μg of the total protein extract were loaded onto a 12% SDS-PAGE gel and electrophoresed at 120 V. After electrophoresis, the proteins were transferred to PVDF membrane (Bio-rad) already activated by methanol (Merck) for 1 hour at 300 mA. The membrane was blocked for 1 hour at the room temperature with 5% skim milk (Seoul Milk) and then incubated overnight at 4° C. in 5% skim milk containing anti-tyrosinase antibody (Santa Cruz) and anti-β-actin antibody (Santa Cruz). The membrane was then washed with 1×TBST for 10 minutes three times and was incubated for 1 hour at the room temperature in 5% skim milk with HRP-conjugated secondary antibody. The membrane was washed with 1×TBST for 10 minutes and treated with 1×ECL for 1 minute. The tyrosinase and β-actin bands were then imaged using a Chemidoc instrument (Bio-rad).
as §3, with “The level” for “After 72 hours of cp-asiTYR(4)-1 incubation, the level”, “expression by MNT-1 cells after treatment with 1 μM and 3 μM cp-asiRNAs” for “expression”, “the transfected” for “the treated”
The level of tyrosinase protein expression by MNT-1 cells after treatment with 1 μM, 0.6 μM, 0.3 μM and 0.1 μM cp-asiRNAs was determined via western blot. Briefly, the transfected MNT-1 cells were lysed with RIPA buffer (GE). […]

[4] = system: MNT-1 cells; experiment: Color change (lightening) of MNT-1 cell pellets; format: cell-based, human; settings: 1 μM or 3 μM, 72 hours, FIG. 5
Experimental: as §1
After 72 hours, cells were pelleted and the color change of the cells was observed.

[5] = system: MEL-300-B reconstructed skin model; experiment: Light microscopy of melanocytes in reconstructed skin model MEL-300-B; format: cell-based; settings: 5 μM every day for 13 days, day 14, light microscopy
Experimental: (§4) Tyrosinase expression and melanin level was analyzed in an cp-asiTYR#4-1 treated 3-D skin model. MEL-300-B (MatTek), a reconstructed skin model, was used in this study. MEL-300-B was stabilized in EPI-100-NMM-113 media 24 hours before treatment with cp-asiTYR#4-1. […] MEL-300-B samples were treated with cp-asiTYR#4-1 every day for 13 days (final concentration=5 μM) by adding cp-asiTYR#4-1 directly to the media. As a control, other MEL-300-B samples were treated with kojic acid (Sigma, 2% final) as depicted in FIG. 14(a). The samples were harvested at day 14 and the melanocytes in the sample were analyzed using light microscopy. […] Melanin level in each sample was analyzed using Fontana-Massons staining.

[6] = system: MNT-1 cells; experiment: Cytotoxicity (LDH, CytoTox96) and cell viability (CCK-8) in MNT-1 cells; format: cell-based, human; settings: 24 hours, LDH and CCK-8 assays, FIG. 6
Experimental: as §5

[7] = system: tyrosinase mRNA; experiment: Tyrosinase mRNA level in reconstructed skin model MEL-300-B by real-time PCR; format: cell-based; settings: 5 μM every day for 13 days, day 14, FIG. 14(d)
Experimental: as §4
In order to analyze mRNA level at day 14, samples were harvested in Isol-RNA lysis reagent (5PRIME) and homogenized by using a homogenizer (IKA). Total RNA from the each sample was extracted. For each sample, 500 ng of the extracted RNA was used for cDNA synthesis using the high-capacity cDNA reverse transcription kit (Applied Biosystems) according to the manufacturer's instructions. Quantitative real-time PCR was then performed using the StepOne real-time PCR system (Applied Biosystems). Amplification of the tyrosinase cDNA was detected using a power SYBR green PCR master Mix (Applied Biosystems). GAPDH was amplified as an internal control.

[8] = system: HaCaT cells
Experimental: as §5

[9] = system: tyrosinase protein; experiment: Western blot of tyrosinase protein in reconstructed skin model MEL-300-B; format: cell-based; settings: 5 μM every day for 13 days, day 14, FIG. 14e
Experimental: as §4
Protein level analysis was conducted as using western blot. Harvested samples in RIPA buffer (GE) were homogenized by using homogenizer (IKA) and protein from the each sample was obtained. Fifteen micrograms of the total protein extract were loaded onto a 12% SDS-PAGE gel and electrophoresed at 120 V. After electrophoresis, the proteins were transferred to PVDF membrane (Bio-rad) that had been previously activated with methanol (Merck) for 1 hour at 300 mA. The membrane was blocked for 1 hour at the room temperature with 5% skim milk (Seoul Milk) and then incubated overnight at 4° C. in 5% skim milk containing anti-tyrosinase antibody (Santa Cruz) and anti-β-actin antibody (Santa Cruz). […]

[10] = system: MEL-300-B reconstructed skin model; experiment: Melanin content assay in reconstructed skin model MEL-300-B; format: cell-based; settings: 5 μM every day for 13 days, day 14, FIG. 14(f)
Experimental: as §4
To test melanin content, samples were harvested at day 14, lysed with RIPA buffer (GE) and centrifuged at 13000 rpm. The resulting pellet was dissolved in 100 μL of 1N NaOH (containing 10% DMSO) at 85° C. for 15 minutes and light absorption and melanin production were measured.

[11] = system: MEL-300-B reconstructed skin model; experiment: Fontana-Massons staining for melanin in reconstructed skin model MEL-300-B; format: cell-based; settings: 5 μM every day for 13 days, day 14, Fontana-Massons staining
Experimental: as §4

## OC[C@H]1O[C@@H](Oc2ccc(O)cc2)[C@H](O)[C@@H](O)[C@@H]1O [arbutin]
[1]
  cytotoxicity / cell viability: cytotoxicity was observed

## Oc1ccc(O)cc1 [hydroquinone]
[1]
  cytotoxicity / cell viability: cytotoxicity was observed

## cp-asiTYR(4) 19AS-5: S: GCUGACAGGAGAUG*A*A*cholesterol (SEQ ID NO: 131); AS: UUCAUCUCCUGUCAG*C*mU*mU*mC (SEQ ID NO: 160) (sense rGrCrUrGrArCrArGrGrArGrArUrG*rA*rA*{Chol}; antisense rUrUrCrArUrCrUrCrCrUrGrUrCrArG*rC*mU*mU*mC; siRNA)
[2]; FIG. 9
  inhibition in melanin production: ~50%
  inhibition in melanin production compared with arbutin: higher than the inhibition shown in MNT-1 cells treated with 2 mM arbutin
[3]; 1 μM and 3 μM, FIG. 8
  relative inhibitory activity on tyrosinase protein: slightly higher inhibitory activity than cp-asiTYR(4) 21AS-1

## cp-asiTYR(4)-1: S: GCUGACAGGAGAUG*A*A*cholesterol (SEQ ID NO: 131); AS: UUCAUCUCCUGUCAGCU*U*C*U*G (SEQ ID NO: 132) (sense GCUGACAGGAGAUGAA; antisense UUCAUCUCCUGUCAGCUUCUG; siRNA; sense: linkages o13 s2 (s phosphorothioate, o phosphodiester), 3' *{Chol}, sugars by position and methylation of C not given here; antisense: linkages o16 s4 (s phosphorothioate, o phosphodiester), sugars by position and methylation of C not given here)
[4]
  color of treated cells: lighter than untreated MNT-1 control cells (NT), hydroquinone treated cells and arbutin treated cells
[5]
  level of melanocytes: reduced the level of melanocytes
[2]; FIG. 4
  inhibition in melanin production compared with hydroquinone and arbutin: higher than when treated with compounds commonly used for melanin production, including hydroquinone (20 μM) and arbutin (2 mM)
[2]; FIG. 9
  inhibition in melanin production: ~50%
  inhibition in melanin production compared with arbutin: higher than the inhibition shown in MNT-1 cells treated with 2 mM arbutin
[2]; without transfection vehicle, FIG. 4
  inhibition in melanin production: greater than 60%
[6]
  cytotoxicity / cell viability: no cytotoxicity or loss of cell viability was observed
[7]
  level of tyrosinase mRNA: reduced the level of tyrosinase mRNA
[8]
  cytotoxicity / cell viability: no cytotoxicity or loss of cell viability was observed
[9]
  tyrosinase protein level: potent knockdown of tyrosinase protein
[3]; 1 μM or 3 μM, 72 hours, without transfection vehicle, FIG. 3
  tyrosinase protein inhibition: ≥ 70%
[3]; 1 μM to 0.1 μM, FIG. 10
  relative inhibitory activity on tyrosinase protein: slightly higher inhibitory activity than cp-asiTYR(4) 19AS-7
[3]; 72 hours, western blot, FIG. 3
  tyrosinase inhibition ability compared with other tyrosinase inhibitors: higher efficiency in the tyrosinase inhibition ability than other tyrosinase inhibitors such as Hydroquinone and Arbutin
[10]
  melanin level (melanin content): reduced melanin level
[11]
  level of melanin: reduced the level of melanin
